Laboratory results from paper PMC8869984, “Multifunctional Silver(I) Complexes with Metronidazole Drug Reveal Antimicrobial Properties and Antitumor Activity against Human Hepatoma and Colorectal Adenocarcinoma Cells” (Cancers, 2022).

How the values were obtained:
[1] = tested on: HepG2 cells; experiment: LDH leakage assay (membrane integrity), 72 h exposure; assay type: cell-based, human; conditions: mean ± SD, n = 3
Description: (§1) The human hepatoma (HepG2) and colorectal adenocarcinoma (Caco-2) cells were purchased from the American Type Culture Collection: ATCC HB-8065 and ATCC HTB-37, respectively. These cells were cultured in Minimum Essential Medium Eagle (MEME) (ATCC). The murine fibroblasts cell line (Balb/c 3T3 clone A31) (gift from the Department of Swine Diseases of the National Veterinary Research Institute in Pulawy) was cultured in Dulbecco’s Modified Eagle Medium (DMEM) (ATCC). The media were supplemented with 10% BCS (Balb/c 3T3), 10% FBS (HepG2), 20% FBS (Caco-2), 1% L-glutamine, 1% antibiotic solution. The cells were maintained in 75 cm^2 cell culture flasks (NUNC) in a humidified incubator at 37 °C in an atmosphere of 5% CO2. The medium was refreshed every two or three days, and the cells were trypsinized by 0.25% trypsin–0.02% EDTA after reaching 70–80% confluence. Single cell suspensions were prepared and adjusted to a density of 2 × 10^5 cell/mL^−1 (HepG2), 1 × 10^5 cell/mL^−1 (Caco-2) and 5 × 10^4 cell/mL^−1 (Balb/c 3T3). The cell suspension was transferred to 96-well plates (100 µL/well) and incubated for 24 h before the exposure to the studied compounds. Stock solutions of ligands and metal complexes were prepared in sterile water and diluted with culture medium to obtain a concentration range from 0.1 to 10 µM. The final concentration of sterile water was 0.1% in the medium. […] As a negative control, cultured cells were grown in the absence of studied compounds. Each concentration was tested in six replicates in three independent experiments. Cytotoxicity was assessed after 72 h of exposure of the cells to compounds. The medium was not changed during the incubation time.
(§2) The integrity of the plasma membrane was assessed through the test of lactate dehydrogenase (LDH) release, which was monitored using the commercially available Cytotoxicity Detection Kit (LDH) (Roche Diagnostics, Warsaw, Poland). […] The absorbance was measured at 492 nm in a microplate reader Synergy HTX multi-mode reader (BioTek® Instruments Inc., Winooski, VT, USA) using a blank as a reference. […]

[2] = tested on: Balb/c 3T3 cells; experiment: MTT assay (mitochondrial activity), 72 h exposure; assay type: cell-based, murine; conditions: Balb/c 3T3, MTT, mean ± SD, n = 3
Description: as §1
The metabolic activity of living cells was assessed by the measurement of the activity of dehydrogenases. […] The plate was shaken for 15 min at room temperature and transferred to a microplate reader Synergy HTX multi-mode reader (BioTek® Instruments Inc., Winooski, VT, USA) to measure the absorbance at 570 nm, using a blank as a reference. Cytotoxicity was expressed as a percentage of the negative control. […]

[3] = tested on: Balb/c 3T3 cells; experiment: NRU assay (lysosomal activity), 72 h exposure; assay type: cell-based, murine; conditions: Balb/c 3T3, NRU, mean ± SD, n = 3
Description: as §1
This method is based on staining living cells with neutral red, which readily diffuses through the plasma membrane and accumulates in lysosomes. […] After 10 min of shaking, the absorbance of the dissolved NR was measured using a Synergy HTX multi-mode reader (BioTek® Instruments Inc., Winooski, VT, USA) at 540 nm using a blank as a reference. Cytotoxicity was expressed as a percentage of the negative control. […]

[4] = tested on: Balb/c 3T3 cells; experiment: TPC assay (total protein content), 72 h exposure; assay type: cell-based, murine; conditions: Balb/c 3T3, TPC, mean ± SD, n = 3
Description: as §1
This assay is based upon staining the total cellular protein (proliferation). […] The absorbance was measured at 595 nm in a microplate reader Synergy HTX multi-mode reader (BioTek® Instruments Inc., Winooski, VT, USA) using a blank as a reference. Cytotoxicity was expressed as a percentage of the negative control. […]

[5] = tested on: Balb/c 3T3 cells; experiment: LDH leakage assay (membrane integrity), 72 h exposure; assay type: cell-based, murine; conditions: Balb/c 3T3, LDH, mean ± SD, n = 3
Description: as §1, §2

N.N.[Cl][Pt][Cl] [Cisplatin, cisplatin] was tested, and the IC50 [1] was under 0.1 µM, the IC50 [2] was over 10 µM and the IC50 [3] was over 10 µM. The IC50 [4] was over 10 µM and the IC50 [5] was over 10 µM.
